Earlier results on 2 compounds are cited in patent publication US8778301B2, “Gamma-hydroxybutyrate compositions containing carbohydrate, lipid or amino acid carriers” (Orphan Medical, Inc., priority 2000, dated 2014).

Where a name gives a salt, the structure may show the parent alone.

Test in series [1]: not given
This is another data set of the same source.

For series [2] the following is noted: in vivo.
For series [3] the following is noted: patients.
For series [4] the following is noted: heroin and methadone withdrawal.
For series [5] the following is noted: intravenous administration, patients.
For series [6] the following is noted: patients. The source holds these as a separate data set.
Test in series [7]: not given
This is another data set of the same source.

The conditions of series [8]: healthy volunteers, 12.5, 25 and 50 mg/kg.

Take `O=C(O)CCCO` [GHB monosodium salt, sodium oxybate]: the “duration of normal sequence of NREM and REM sleep” value (healthy human volunteers, low doses (about 30 mg/kg)) was 2 to 3 h. In addition, the “tolerance to sleep-inducing effects” value (low doses, over time) is “without the development of tolerance”.
For the compound `O=C(O)CCCO` [GHB, Gamma-hydroxybutyric acid], in series [1] (clinical trials), the continuity of sleep entry was “improves the continuity of sleep” and the delta sleep result is reported as “increases delta sleep”. For the same compound, in series [1] (human, in vivo), the REM latency entry is given as “decreases REM latency”; the sleep apnea result is listed as “reduces sleep apnea”; the “total sleep time and REM sleep” value was “increases total sleep time and REM sleep”. For the same compound, the “signs and symptoms of narcolepsy (daytime sleepiness, cataplexy, sleep paralysis, hypnagogic hallucinations)” value in series [2] was “substantially reduces the signs and symptoms of narcolepsy”. Besides, in series [3], the “alcohol craving, daily drinks, alcohol withdrawal symptoms” value was “reduce alcohol craving, the number of daily drinks consumed, and the symptoms of alcohol withdrawal”. Besides, in [4], the “symptoms of opiate withdrawal” value was “decrease the symptoms of opiate withdrawal”. For the same compound, in series [5], the intracranial pressure entry is “reduce intracranial pressure”. The growth hormone levels result in series [6] was “increase growth hormone levels”. In addition, the “organ or other toxicities in periodic clinical laboratory tests” value in [7] (long-term treatment of narcolepsy) was “have not indicated organ or other toxicities”. The development of tolerance result in series [7] (patients treated for many years) was “without development of tolerance”. Besides, in series [8], the “oral absorption and elimination processes” value is given as “capacity-limited”.
